According to patent US20060040859A1, “Peptides, DNAs, RNAs, and compounds for inhibiting or inducing adrenomedullin activity, and use of the same” (priority 2002, published 2006):
“Also recorded” adds a separate entry of the source.

Key:
[1] = system: cancer cells; test: In vitro growth of cancer cells with AMA; type: cell-based
[2] = system: newly generated blood vessels; test: Anti-CD31 staining and diameters of newly generated blood vessels in tumor tissue (Example 4); type: in vivo, mouse; settings: for Average ± standard deviation of blood vessel diameters: 100 newly generated blood vessels; for Number of blood vessels 2 μm to less than 8 μm / Number of blood vessels 8 μm or more / Number of blood vessels less than 2 μm: of 100 arbitrarily selected newly generated blood vessels, by diameter; for newly generated blood vessels by anti-CD31 staining: tumor tissue of Example 3 mice, FIG. 5
Procedure: The effect of a peptide of the present invention on angiogenesis was examined. Experiments were carried out with the tumor tissues of mice used in Example 3. Mouse tumor tissues were extirpated, and CD31 antigen, which is the cell surface marker specific for vascular endothelial cells, was stained with anti-CD31 antibody. Staining was performed as described below. The experiments were carried out using five mice.
Tumor tissues were frozen in liquid nitrogen to prepare frozen sections. After the frozen sections were pre-treated in albumin solution for 30 min, endogenous peroxidase activity was suppressed with hydrogen peroxide, and then, the sections were treated with anti-CD31 antibody for 1 h at room temperature. After washing, the sections were treated with a secondary antibody for 1 h, and coloured using […].
Next, 100 newly generated blood vessels of the vascular endothelial cells used in Example 4 were arbitrarily selected to measure their respective diameters. In Table 1, results of the number of the newly generated blood vessels classified by their diameters into three groups (less than 2 μm, 2 μm to less than 8 μm, and 8 μm or more) are shown together with the average of blood vessel diameters and standard deviations. In Table 1, AM stands for adrenomedullin, and AMA adrenomedullin antagonist.

[3] = system: PCI-43 cells; test: Intra-tumoral injection of AM or AMA peptide, extirpated PCI-43 tumor size and weight (Example 3); type: in vivo, mouse
Procedure: On the dorsal side of CB17lcr-scid Jl mice (CLEA JAPAN Inc.), 10^7 PCI-43 cells were subcutaneously transplanted. It was confirmed that PCI-43 cells proliferated to form a tumor, and that the tumor diameter exceeded 5 mm after 7 days. After that confirmation, 50 μg each […] of adrenomedullin and adrenomedullin antagonist (dissolved in 0.1 ml of physiological saline) was injected into the tumor once every three days from the 7th day, that is, on the 7th, 10th, 13th, and 16th days. Adrenomedullin and adrenomedullin antagonist used herein were the same as those used in Example 1.
Mice were sacrificed on the 21st day, and tumors were extirpated and weighed.

[4] = system: proliferating cell nuclear antigen (PCNA) of tumor cells; test: Anti-PCNA staining of tumor cells (Example 5); type: in vivo, mouse; settings: for cells reacting with the anti-PCNA antibody: FIG. 6; for PCNA-labelling index: tumor cells of treated mice
From the text: The effect of a peptide of the present invention on cell proliferation was examined. The proliferating cell nuclear antigen (PCNA) of tumor cells from the mice used in Example 2 was stained with anti-PCNA antibody. The staining method was the same as in Example 4. Five mice were used in the experiment. The staining results for tumor cells of an adrenomedullin-administered mouse are shown on the left side in FIG. 6, while those of an adrenomedullin antagonist-administered mouse are shown on the right side.

[5] = system: HUVEC cells; test: MTS assay, AMA with AM on endothelial cells under hypoxic and nutrient-deprived conditions (Example 7C); type: cell-based; settings: AM 10^-6 M, AMA 0 to 10^-6 M, VEGF and FGF 10 ng/ml, 48 h
Procedure: (§1) The effect of both AM and AMA together on the growth and apoptosis of endothelial cells under extreme conditions (hypoxic and nutrient-deprived) and in the presence of growth factors is examined herein. As in Example 1 above, hypoxic conditions comprised culture in 1% O2 concentration for 12 h using a hypoxic culture chamber (Wakenyaku Industry) and nutrient-deprived conditions involved addition of only 13 mg/dl glucose.
(§2) Five×10^3 cells (2×10^4 in some experiments) were plated in wells of 96-well plates. Human adrenomedullin (AM) (SEQ ID NO: 1) was added at a concentration of 10^−6 M and a human adrenomedullin antagonist peptide (AMA) (SEQ ID NO: 2) was added at indicated concentrations, ranging from 0 to 10^−6 M. VEGF and FGF were added at 10 ng/ml. The cells were incubated for 48 h and the viable cell numbers were determined by the MTS assay according to the manufacturer's instructions as described above in Example 7A.

[6] = system: PCI-43 cells; test: Intra-tumoral injection of AM or AMA peptide, tumor size of PCI-43 xenograft (Example 2); type: in vivo, mouse; settings: 50 μg in 0.1 ml saline into the tumor once a day, 7th to 16th day, observed to 21st day, SCID mice
Procedure: On the dorsal side of a CB17lcr-scid Jl mouse (CLEA JAPAN Inc.), 10^7 PCI-43 cells were subcutaneously transplanted. It was confirmed that PCI-43 cells proliferated to form a tumor, and that the tumor diameter exceeded 5 mm after 7 days. After that confirmation, 50 μg […] each of adrenomedullin and a peptide of the present invention (dissolved in 0.1 ml of physiological saline) was injected into the tumor once a day starting on the 7th day until the 16th day. A peptide consisting of SEQ ID NO: 2 was used as the peptide of the present invention (hereinafter also referred to as an “adrenomedullin antagonist (AMA)”). This peptide was purchased from Wako Pure Chemical Industries, Ltd.
The tumor diameter was megascopically measured every three days. Results are shown in FIG. 2, a graphical representation of tumor sizes when adrenomedullin, adrenomedullin antagonist, and physiological saline (V3), respectively, were administered. The horizontal axis represents the number of days after transplanting PCI-43 cells, and the vertical axis the size of the tumor in volume (mm^3). Arrows at the upper part of the graph indicate timings of administration of adrenomedullin, adrenomedullin antagonist, and physiological saline. Five CB 17lcr-scid Jl mice were used in each group.

[7] = system: HUVEC cells; test: MTS assay, endothelial cells under hypoxic and nutrient-deprived conditions with VEGF and FGF (Example 7B); type: cell-based; settings: hypoxic and glucose-deprived, AM 0 to 10^-6 M, VEGF and FGF 10 ng/ml, 48 h
Procedure: as §1, with “of” for “of both”, “AM” for “AM and AMA together”
as §2, with “1)” for “1) was added at a concentration of 10^−6 M and a human adrenomedullin antagonist peptide (AMA) (SEQ ID NO: 2)”

[8] = system: Mitogen-activated protein kinases (MAPKS); test: MAPK activity in Rat-2 cells; type: cell-based
From the text: (§3) In order to skip this problem, cell lines expressing endogenous adrenomedullin binding. Three cell lines to date are available. L6 cells are a rat myoblast cell line known to express CGRP1 receptors, Swiss 3T3 cells are a mouse fibroblast cell line, and Rat-2 cells are rat fibroblasts. […] L6 cells express CRLR and RAMPs 1 and 2. In Swiss 3T3 cells the effects of adrenomedullin were mediated via specific adrenomedullin receptors. […] These cells are useful in establishing the screening system to inhibit functionally the intracellular signal transduction after a receptor engagement by adrenomedullin.

[9] = system: U87 glioblastoma cells; settings: exogenously added; cited from earlier work
[10] = system: HUVEC cells; test: MTS assay, endothelial cell growth under normoxic, normal glucose conditions (Example 7A); type: cell-based; settings: AM 0 to 10^-6 M, 48 h, normoxic and nutrient-supplied
Procedure: The effect of AM on the growth of endothelial cells under normal conditions (normoxia, normal glucose) is examined herein. As in Example I above, normoxic conditions comprised culture in 20% O2 concentration and normal glucose conditions involved addition of 100 mg/dl of glucose or higher.
Five×10^3 cells (2×10^4 in some experiments) were plated in wells of 96-well plates. Human adrenomedullin (AM) (SEQ ID NO: 1) was added at indicated concentrations, ranging from 0 to 10^−6 M. The cells were incubated for 48 h and the viable cell numbers were determined by MTS assay according to the manufacturer's instructions. Cell viability can be reflected by the integrity of the mitochondria. When the MTS reagent (a tetrazolium salt) is applied to living cells, it is converted to a color compound (formazan) […] at 490 nm. Accordingly, the MTS assay may be used to assay cell viability and to count viable cells.

[11] = system: Rat-2 cells; test: Intracellular cAMP in Rat-2 cells; type: cell-based; settings: in the absence of CGRP binding
From the text: as §3

Row | Substance | Average ± standard deviation of blood vessel diameters [2] [μm] | Number of blood vessels 2 μm to less than 8 μm [2] | Number of blood vessels 8 μm or more [2] | Number of blood vessels less than 2 μm [2] | newly generated blood vessels by anti-CD31 staining [2] | cells reacting with the anti-PCNA antibody [4] | PCNA-labelling index [4] | apoptosis of endothelial cells (viable cells, O.D.) [7] | other results
1 | AMA: 31 amino acid truncated human adrenomedullin lacking the first 21 N-terminal amino acids (SEQ ID NO: 2), purchased from Wako | 2.276 ± 1.120 | 44 | 1 | 55 | newly generated blood vessels were thin | few cells reacted with the anti-PCNA antibody | 6.3±5.2 | – | growth inhibitory effect on cancer cells in vitro [1]: did not exhibit any growth inhibitory effect; blood vessel diameters relative to adrenomedullin-administered mice ([2]; mouse, in vivo): one half; tumor weight relative to adrenomedullin-administered group ([3]; 21st day): about half; size of the extirpated tumor compared to adrenomedullin-administered group ([3]; 21st day, photograph FIG. 3, listed as adrenomedullin antagonist): became smaller; also recorded: noticeably smaller; proliferating cells compared to adrenomedullin-administered mice ([4]; mouse, in vivo): decreased by about one quarter; apoptosis of endothelial cells (viable cells, O.D.) [5]: induced apoptosis of the endothelial cells in a dose dependent manner; tumor size (volume) ([6]; listed as adrenomedullin antagonist): became almost megascopically invisible; also recorded: reduction in tumor volume
2 | VEGF | – | – | – | – | – | – | – | underwent apoptosis | –
3 | adrenomedullin (YRQSMNNFQGLRSFGCRFGTCTVQKLAHQIYQFTDKDKDNVAPRSKISPQGY; listed as Homo sapiens) [AM, reference compound] | 6.454 ± 5.313 | 54 | 31 | 15 | thick blood vessels were newly generated | many cells reacting with the anti-PCNA antibody were present | 25.8±3.9 | protected the endothelial cells from apoptosis | PDGF-stimulated and basal MAPK activity [8]: potently and dose-dependently inhibited; growth of glioblastoma cells in vitro [9]: can stimulate the growth; tumor weight ([3]; 50 μg into the tumor on 7th, 10th, 13th, 16th days, tumors extirpated on 21st day): about 0.05 g; growth of endothelial cells (viable cells, O.D.) [10]: no significant effect; intracellular cAMP [11]: dose-dependent stimulation of intracellular cAMP; tumor size (volume) [6]: the tumor size hardly changed
